According to ChEMBL document CHEMBL5532761, “Rosavin improves insulin resistance and alleviates hepatic and kidney damage via modulating the cGAS-STING pathway and autophagy signaling in HFD/STZ-induced T2DM animals” (2024):
Active and inactive are the calls of the source. The calls are words filed in the database; no cut-off is given here.

Legend:
Rattus norvegicus [1] = assay: (§1) Antidiabetic activity in high fat diet-STZ induced diabetic Wistar rat model assessed as glucose level in serum at 30 mg/kg, ip pretreated with high fat diet for 4 weeks followed by 8 hrs fasting after STZ administration and measured 4 weeks after compound treatment (reference value: 527.7 +/- 49.1 mg%); assay type: functional
Rattus norvegicus [2] = assay: (§2) Antidiabetic activity in high fat diet-STZ induced diabetic Wistar rat model assessed as HOMA-IR level at 30 mg/kg, ip pretreated with high fat diet for 4 weeks followed by 8 hrs fasting after STZ administration and measured 4 weeks after compound treatment (reference value: 21.51 +/- 2.17); assay type: functional
Rattus norvegicus [3] = assay: (§3) Antidiabetic activity in high fat diet-STZ induced diabetic Wistar rat model assessed as mean area percentage of LC3B in liver at 20 mg/kg, ip pretreated with high fat diet for 4 weeks followed by 8 hrs fasting after STZ administration and measured after 4 weeks of compound treatment by immunohistochemistry based microscopic analysis (reference value: 0.742 +/- 0.143 %); assay type: functional
Rattus norvegicus [4] = assay: as §2, with “reduction in tubular degenerative changes in kidney” for “HOMA-IR level”, “10” for “30”, “by hematoxylin and eosin staining based microscopic analysis” for “(reference value: 21.51 +/- 2.17)”; assay type: functional, organism-based
Rattus norvegicus [5] = assay: as §2, with “urine albumin to creatinine ratio” for “HOMA-IR level”, “20” for “30”, “87.13” for “21.51”, “9.75 mg/g)” for “2.17)”; assay type: functional
Rattus norvegicus [6] = assay: as §3, with “kidney” for “liver”, “30” for “20”, “2.47” for “0.742”, “0.356” for “0.143”; assay type: functional
Rattus norvegicus [7] = assay: Antidiabetic activity in high fat diet-STZ induced diabetic Wistar rat model assessed as increase in body weight at 10 to 30 mg/kg, ip pretreated with high fat diet for 4 weeks followed by 8 hrs fasting after STZ administration and measured 4 weeks after compound treatment; assay type: functional, organism-based; settings: dose 10-30 mg/kg
Rattus norvegicus [8] = assay: (§4) Antidiabetic activity in high fat diet-STZ induced diabetic Wistar rat model assessed as reduction in inflammatory infiltrates in kidney at 20 mg/kg, ip pretreated with high fat diet for 4 weeks followed by 8 hrs fasting after STZ administration and measured 4 weeks after compound treatment by hematoxylin and eosin staining based microscopic analysis; assay type: functional, organism-based
Rattus norvegicus [9] = assay: Antidiabetic activity in high fat diet-STZ induced diabetic Wistar rat model assessed as AST level at 30 mg/kg, ip pretreated with high fat diet for 4 weeks followed by 8 hrs fasting after STZ administration and measured 4 weeks after compound treatment (reference value: 136.3 +/- 22.8 IU/L); assay type: functional
Rattus norvegicus [10] = assay: as §4, with “appearance of apparent intact segments” for “reduction in inflammatory infiltrates”, “10” for “20”; assay type: functional, organism-based
Rattus norvegicus [11] = assay: as §4, with “persistent tubular dilation” for “inflammatory infiltrates”; assay type: functional, organism-based
Rattus norvegicus [12] = assay: (§5) Antidiabetic activity in ip dosed high fat diet-STZ induced diabetic Wistar rat model assessed as reduction of DDX58 mRNA expression in liver pretreated with high fat diet for 4 weeks followed by 8 hrs fasting after STZ administration and measured 4 weeks after compound treatment by RT-qPCR analysis; assay type: functional, organism-based; settings: dose 10-30 mg/kg
Rattus norvegicus [13] = assay: as §3, with “TNFalpha” for “LC3B”, “kidney” for “liver”, “30” for “20”, “24” for “0.742”, “1.5” for “0.143”; assay type: functional
Rattus norvegicus [14] = assay: as §2, with “HDL-cholesterol” for “HOMA-IR”, “0.688” for “21.51”, “0.288 mmol/L)” for “2.17)”; assay type: functional
Rattus norvegicus [15] = assay: as §4, with “epididymal adipocyte cell size” for “inflammatory infiltrates”, “adipose tissue” for “kidney”, “20 to 30” for “20”; assay type: functional, organism-based; settings: dose 20-30 mg/kg
Rattus norvegicus [16] = assay: as §5, with “STING” for “DDX58”, “kidney” for “liver”; assay type: functional, organism-based; settings: dose 10-30 mg/kg
Rattus norvegicus [17] = assay: as §4, with “binucleated cells” for “reduction”, “liver” for “inflammatory infiltrates in kidney”, “30” for “20”; assay type: functional, organism-based
Rattus norvegicus [18] = assay: as §3, with “30” for “20”; assay type: functional
Rattus norvegicus [19] = assay: as §4, with “30” for “20”; assay type: functional, organism-based
Rattus norvegicus [20] = assay: Antidiabetic activity in high fat diet-STZ induced diabetic Wistar rat model assessed as ALT level at 30 mg/kg, ip pretreated with high fat diet for 4 weeks followed by 8 hrs fasting after STZ administration and measured 4 weeks after compound treatment (reference value: 152.1 +/- 23.64 IU/L); assay type: functional
Rattus norvegicus [21] = assay: as §4, with “protection against diffuse hepatocellular microvesicular steatosis” for “reduction in inflammatory infiltrates in kidney”, “10” for “20”; assay type: functional, organism-based
Rattus norvegicus [22] = assay: as §1, with “10” for “30”; assay type: functional
Rattus norvegicus [23] = assay: as §3, with “TNFalpha” for “LC3B”, “kidney” for “liver”, “24” for “0.742”, “1.5” for “0.143”; assay type: functional
Rattus norvegicus [24] = assay: as §2, with “cholesterol” for “HOMA-IR”, “10.39” for “21.51”, “1.3 mmol/L)” for “2.17)”; assay type: functional
Rattus norvegicus [25] = assay: as §5, with “STING” for “DDX58”, “adipose tissue” for “liver”; assay type: functional, organism-based; settings: dose 10-30 mg/kg

## O[C@@H]1[C@@H](O)[C@H](OC/C=C/c2ccccc2)O[C@H](CO[C@@H]2OC[C@H](O)[C@H](O)[C@H]2O)[C@H]1O
Rattus norvegicus [1]
  Activity: 123.9 mg%
Rattus norvegicus [2]
  Activity: 1.73
Rattus norvegicus [3]
  Activity: 2.35%
Rattus norvegicus [4]
  Activity: inactive
Rattus norvegicus [5]
  Activity: 33.38 mg/g
Rattus norvegicus [6]
  Activity: 12.7%
Rattus norvegicus [7]
  Activity: Active
Rattus norvegicus [8]
  Activity: Active
Rattus norvegicus [9]
  Activity: 30.25 IU/L
Rattus norvegicus [10]
  Activity: inactive
Rattus norvegicus [11]
  Activity: Active
Rattus norvegicus [12]
  Activity: Dose-Dependent Effect
Rattus norvegicus [13]
  Activity: 3.98%
Rattus norvegicus [14]
  Activity: 1.39 mmol/L
Rattus norvegicus [15]
  Activity: Active
Rattus norvegicus [16]
  Activity: Dose-Dependent Effect
Rattus norvegicus [17]
  Activity: Active
Rattus norvegicus [18]
  Activity: 13.3%
Rattus norvegicus [19]
  Activity: Active
Rattus norvegicus [20]
  Activity: 18.13 IU/L
Rattus norvegicus [21]
  Activity: inactive
Rattus norvegicus [22]
  Activity: 227.7 mg%
Rattus norvegicus [23]
  Activity: 13.17%
Rattus norvegicus [24]
  Activity: 3.15 mmol/L
Rattus norvegicus [25]
  Activity: Dose-Dependent Effect
